Source: ChEMBL document CHEMBL5241127, “Design, synthesis and biological evaluation of novel 9-N-substituted-13-alkylberberine derivatives from Chinese medicine as anti-hepatocellular carcinoma agents” (Bioorg Med Chem, 2023)
pIC50: −log10 of the molar value.

Columns and labels:
HepG2 = experiment: Antiproliferative activity against human HepG2 cells assessed as inhibition of cell growth incubated for 72 hrs by MTT assay; assay type: functional, cell-based; conditions: HepG2, 72 h
DNA = experiment: Binding affinity to duplex DNA (unknown origin) using fluorescent tagged F10T model assessed as stabilization by measuring change in melting temperature at 2 uM by fluorescence based analysis; assay type: nucleic-acid assay
Quadruplex DNA [1] = experiment: Binding affinity to c-MYC G4-quadruplex DNA (unknown origin) using fluorescent tagged FPu18T model assessed as stabilization by measuring change in melting temperature at 2 uM by fluorescence based analysis; assay type: nucleic-acid assay
Quadruplex DNA [2] = experiment: Binding affinity to c-MYC G4-quadruplex DNA (unknown origin) using fluorescent tagged FPu18T model assessed as stabilization by measuring change in melting temperature at 2 uM incubated in presence of non-fluorescent ds26 DNA by fluorescence based analysis; assay type: nucleic-acid assay

| SMILES | pIC50 (HepG2) | ΔTm (DNA) [°C] | ΔTm (Quadruplex DNA [1]) [°C] | ΔTm (Quadruplex DNA [2]) [°C] |
| --- | --- | --- | --- | --- |
| CCCCCCc1c2[n+](cc3c(NCCO)c(OC)ccc13)CCc1cc3c(cc1-2)OCO3 | 5.34 |  |  |  |
| CCCCCCCCCCc1c2[n+](cc3c(NCCN(C)C)c(OC)ccc13)CCc1cc3c(cc1-2)OCO3 | 5.99 |  |  |  |
| CCCCCCCCc1c2[n+](c3c4c(c(OC)ccc14)N(CCO)C=C3)CCc1cc3c(cc1-2)OCO3 | 5.64 |  |  |  |
| CCCCCCCCc1c2[n+](cc3c(NCCCN4CCOCC4)c(OC)ccc13)CCc1cc3c(cc1-2)OCO3 | 5.95 | 0.6 | 18.5 | 17.4 |
| CCCCCCCCCCCCc1c2[n+](cc3c(NCCO)c(OC)ccc13)CCc1cc3c(cc1-2)OCO3 | 5.64 |  |  |  |
